Like-named read-outs stand apart in the source and are kept apart here.
How the values were obtained:
Test in all cases: DiscoverX KINOMEscan kinase profiling (468 assays)
Assay type in all cases: binding
[1] = biological target: human kinome (Homo sapiens, UniProt O00506); details: kinase YSK1 (Entrez STK25); compound concentration 1000 nM; read-out: Percent Control
How it was run: (§1)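 VIP152 was run in DMSO, alongside a DMSO control. Readout was qPCR of DNA-tagged kinase still bound to bead-immobilized biotinylated kinase ligands after compound competition.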

[2] = biological target: human kinome (Homo sapiens, UniProt O94804); details: LOK (Entrez STK10); 100 nM; read-out: Percent Control
How it was run: as §1

[3] = biological target: human kinome (Homo sapiens, UniProt O95382); details: ASK2 (Entrez MAP3K6); 100 nM; read-out: Percent Control
How it was run: as §1

[4] = biological target: human kinome (Homo sapiens, UniProt P08581, Y1235D); details: MET(Y1235D); 100 nM; read-out: Percent Control
How it was run: as §1

[5] = biological target: human kinome (Homo sapiens, UniProt P10721, V559D/V654A); details: KIT(V559D,V654A); 100 nM; read-out: Percent Control
How it was run: as §1

[6] = biological target: human kinome (Homo sapiens, UniProt P15735); details: read-out: Percent Control
How it was run: as §1

[7] = biological target: human kinome (Homo sapiens, UniProt P36888, R834Q); details: FLT3(R834Q); 100 nM; read-out: Percent Control
How it was run: as §1

[8] = biological target: human kinome (Homo sapiens, UniProt P48736); details: read-out: Percent Control
How it was run: as §1

[9] = biological target: human kinome (Homo sapiens, UniProt P49137); details: MAPKAPK2; 100 nM; read-out: Percent Control
How it was run: as §1

[10] = biological target: human kinome (Homo sapiens, UniProt P51812); details: compound concentration 1000 nM, read-out: Percent Control
How it was run: as §1

[11] = biological target: human kinome (Homo sapiens, UniProt P54764); details: EPHA4; 100 nM; read-out: Percent Control
How it was run: as §1

[12] = biological target: human kinome (Homo sapiens, UniProt P57058); details: HUNK; 100 nM; read-out: Percent Control
How it was run: as §1

[13] = biological target: human kinome (Homo sapiens, UniProt Q02750); details: MEK1 (Entrez MAP2K1); 100 nM; read-out: Percent Control
How it was run: as §1

[14] = biological target: human kinome (Homo sapiens, UniProt Q02779); details: MLK2 (Entrez MAP3K10); 100 nM; read-out: Percent Control
How it was run: as §1

[15] = biological target: human kinome (Homo sapiens, UniProt Q13470); details: kinase TNK1 (Entrez TNK1); compound concentration 1000 nM; read-out: Percent Control
How it was run: as §1

[16] = biological target: human kinome (Homo sapiens, UniProt Q16584); details: MLK3 (Entrez MAP3K11); 100 nM; read-out: Percent Control
How it was run: as §1

[17] = biological target: human kinome (Homo sapiens, UniProt Q16620); details: kinase TRKB (Entrez NTRK2); compound concentration 1000 nM; read-out: Percent Control
How it was run: as §1

[18] = biological target: human kinome (Homo sapiens, UniProt Q2M2I8); details: AAK1; 100 nM; read-out: Percent Control
How it was run: as §1

[19] = biological target: human kinome (Homo sapiens, UniProt Q6PHR2); details: kinase ULK3 (Entrez ULK3); compound concentration 1000 nM; read-out: Percent Control
How it was run: as §1

[20] = biological target: human kinome (Homo sapiens, UniProt Q6ZN16); details: MAP3K15; 100 nM; read-out: Percent Control
How it was run: as §1

[21] = biological target: human kinome (Homo sapiens, UniProt Q7KZI7); details: MARK2; 100 nM; read-out: Percent Control
How it was run: as §1

[22] = biological target: human kinome (Homo sapiens, UniProt Q86V86); details: read-out: Percent Control
How it was run: as §1

[23] = biological target: human kinome (Homo sapiens, UniProt Q86YV6); details: read-out: Percent Control
How it was run: as §1

[24] = biological target: human kinome (Homo sapiens, UniProt Q8NFD2); details: ANKK1; 100 nM; read-out: Percent Control
How it was run: as §1

[25] = biological target: human kinome (Homo sapiens, UniProt Q8TBX8); details: read-out: Percent Control
How it was run: as §1

[26] = biological target: human kinome (Homo sapiens, UniProt Q8TD08); details: ERK8 (Entrez MAPK15); 100 nM; read-out: Percent Control
How it was run: as §1

[27] = biological target: human kinome (Homo sapiens, UniProt Q96PN8); details: kinase TSSK3 (Entrez TSSK3); compound concentration 1000 nM; read-out: Percent Control
How it was run: as §1

[28] = biological target: human kinome (Homo sapiens, UniProt Q99755); details: read-out: Percent Control
How it was run: as §1

[29] = biological target: human kinome (Homo sapiens, UniProt Q9P1W9); details: read-out: Percent Control
How it was run: as §1

Sequence of human kinome (Homo sapiens, UniProt Q99755) (Q99755 whole entry): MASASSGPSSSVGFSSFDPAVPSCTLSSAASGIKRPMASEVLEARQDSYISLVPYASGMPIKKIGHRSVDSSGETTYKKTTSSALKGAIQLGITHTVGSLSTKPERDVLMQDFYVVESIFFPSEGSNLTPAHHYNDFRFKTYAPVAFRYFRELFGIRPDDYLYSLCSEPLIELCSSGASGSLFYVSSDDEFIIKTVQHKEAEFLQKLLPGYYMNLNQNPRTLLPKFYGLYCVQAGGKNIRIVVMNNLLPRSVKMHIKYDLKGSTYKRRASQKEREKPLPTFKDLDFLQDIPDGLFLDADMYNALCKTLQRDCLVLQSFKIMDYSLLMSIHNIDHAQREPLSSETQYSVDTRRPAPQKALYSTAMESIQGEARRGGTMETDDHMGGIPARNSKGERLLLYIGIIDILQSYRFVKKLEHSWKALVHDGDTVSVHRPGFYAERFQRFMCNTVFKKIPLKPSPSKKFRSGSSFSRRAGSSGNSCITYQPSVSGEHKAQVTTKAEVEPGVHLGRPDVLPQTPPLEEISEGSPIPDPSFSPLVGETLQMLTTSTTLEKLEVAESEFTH
Sequence of human kinome (Homo sapiens, UniProt P51812) (P51812 whole entry): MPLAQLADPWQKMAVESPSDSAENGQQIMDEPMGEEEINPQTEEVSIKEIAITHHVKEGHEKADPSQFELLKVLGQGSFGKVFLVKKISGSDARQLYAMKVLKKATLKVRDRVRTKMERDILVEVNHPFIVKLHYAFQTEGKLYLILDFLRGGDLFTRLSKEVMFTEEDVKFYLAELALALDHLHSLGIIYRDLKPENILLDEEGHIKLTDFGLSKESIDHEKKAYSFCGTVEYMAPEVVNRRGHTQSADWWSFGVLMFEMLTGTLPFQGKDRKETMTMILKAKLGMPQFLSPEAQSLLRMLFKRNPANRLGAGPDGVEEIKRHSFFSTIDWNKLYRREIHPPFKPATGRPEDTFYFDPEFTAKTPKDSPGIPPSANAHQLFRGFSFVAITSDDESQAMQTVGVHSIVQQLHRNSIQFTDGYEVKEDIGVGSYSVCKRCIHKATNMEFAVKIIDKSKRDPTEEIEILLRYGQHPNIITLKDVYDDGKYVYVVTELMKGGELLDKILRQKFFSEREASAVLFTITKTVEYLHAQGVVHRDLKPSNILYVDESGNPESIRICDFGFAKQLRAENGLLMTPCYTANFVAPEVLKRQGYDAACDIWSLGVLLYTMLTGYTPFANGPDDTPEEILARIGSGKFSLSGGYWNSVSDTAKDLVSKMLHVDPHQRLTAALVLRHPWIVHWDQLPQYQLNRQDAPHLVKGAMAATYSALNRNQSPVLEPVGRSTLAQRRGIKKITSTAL
Sequence of human kinome (Homo sapiens, UniProt P48736) (P48736 whole entry): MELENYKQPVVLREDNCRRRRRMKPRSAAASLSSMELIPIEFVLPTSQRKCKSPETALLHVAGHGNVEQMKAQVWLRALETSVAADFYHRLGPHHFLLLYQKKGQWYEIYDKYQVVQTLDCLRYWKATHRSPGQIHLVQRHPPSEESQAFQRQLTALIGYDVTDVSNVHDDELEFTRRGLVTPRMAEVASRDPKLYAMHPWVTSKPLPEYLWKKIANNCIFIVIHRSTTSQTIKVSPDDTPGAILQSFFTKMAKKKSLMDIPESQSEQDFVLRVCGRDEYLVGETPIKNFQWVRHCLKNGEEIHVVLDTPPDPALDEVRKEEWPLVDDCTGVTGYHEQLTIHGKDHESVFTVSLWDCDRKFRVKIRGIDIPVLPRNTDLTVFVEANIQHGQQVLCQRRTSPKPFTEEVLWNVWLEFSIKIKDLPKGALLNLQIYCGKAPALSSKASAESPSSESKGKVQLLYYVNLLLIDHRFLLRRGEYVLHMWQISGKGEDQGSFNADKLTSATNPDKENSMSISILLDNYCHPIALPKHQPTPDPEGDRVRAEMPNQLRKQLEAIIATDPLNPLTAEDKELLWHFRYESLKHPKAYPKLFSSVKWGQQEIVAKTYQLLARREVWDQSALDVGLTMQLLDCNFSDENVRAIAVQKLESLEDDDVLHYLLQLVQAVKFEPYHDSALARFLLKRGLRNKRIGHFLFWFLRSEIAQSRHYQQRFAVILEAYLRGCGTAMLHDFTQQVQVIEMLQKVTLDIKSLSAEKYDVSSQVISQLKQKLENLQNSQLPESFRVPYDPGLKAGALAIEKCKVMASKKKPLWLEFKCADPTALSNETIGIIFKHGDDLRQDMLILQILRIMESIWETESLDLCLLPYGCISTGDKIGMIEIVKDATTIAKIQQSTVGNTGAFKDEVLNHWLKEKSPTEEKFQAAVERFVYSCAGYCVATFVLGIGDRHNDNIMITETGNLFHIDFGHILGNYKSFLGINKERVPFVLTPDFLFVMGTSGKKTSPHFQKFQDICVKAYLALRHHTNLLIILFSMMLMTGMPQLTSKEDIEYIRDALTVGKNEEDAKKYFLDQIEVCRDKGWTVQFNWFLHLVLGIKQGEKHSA
Sequence of human kinome (Homo sapiens, UniProt Q8TBX8) (Q8TBX8 whole entry): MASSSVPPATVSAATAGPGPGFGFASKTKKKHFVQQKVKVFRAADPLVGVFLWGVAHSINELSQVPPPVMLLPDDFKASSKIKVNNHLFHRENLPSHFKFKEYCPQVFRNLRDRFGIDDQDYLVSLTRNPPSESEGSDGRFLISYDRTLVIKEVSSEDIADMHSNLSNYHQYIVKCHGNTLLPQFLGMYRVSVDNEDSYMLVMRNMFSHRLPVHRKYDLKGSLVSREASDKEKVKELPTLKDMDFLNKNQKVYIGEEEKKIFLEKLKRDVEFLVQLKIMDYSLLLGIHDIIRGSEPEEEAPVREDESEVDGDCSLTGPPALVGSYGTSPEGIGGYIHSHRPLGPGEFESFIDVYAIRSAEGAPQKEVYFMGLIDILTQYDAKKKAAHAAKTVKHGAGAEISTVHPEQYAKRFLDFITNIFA
Sequence of human kinome (Homo sapiens, UniProt P15735) (P15735 whole entry): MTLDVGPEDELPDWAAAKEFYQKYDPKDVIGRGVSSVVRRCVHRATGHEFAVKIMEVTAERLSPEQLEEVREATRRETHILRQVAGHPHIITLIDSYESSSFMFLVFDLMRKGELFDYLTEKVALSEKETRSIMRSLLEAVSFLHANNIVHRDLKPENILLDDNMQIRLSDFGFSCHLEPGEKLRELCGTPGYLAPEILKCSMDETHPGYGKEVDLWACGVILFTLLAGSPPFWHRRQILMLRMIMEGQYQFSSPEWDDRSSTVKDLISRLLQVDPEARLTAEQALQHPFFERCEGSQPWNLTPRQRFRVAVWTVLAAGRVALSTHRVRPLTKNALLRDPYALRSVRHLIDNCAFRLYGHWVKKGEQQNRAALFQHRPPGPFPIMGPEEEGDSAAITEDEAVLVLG
Sequence of human kinome (Homo sapiens, UniProt Q86YV6) (Q86YV6 whole entry): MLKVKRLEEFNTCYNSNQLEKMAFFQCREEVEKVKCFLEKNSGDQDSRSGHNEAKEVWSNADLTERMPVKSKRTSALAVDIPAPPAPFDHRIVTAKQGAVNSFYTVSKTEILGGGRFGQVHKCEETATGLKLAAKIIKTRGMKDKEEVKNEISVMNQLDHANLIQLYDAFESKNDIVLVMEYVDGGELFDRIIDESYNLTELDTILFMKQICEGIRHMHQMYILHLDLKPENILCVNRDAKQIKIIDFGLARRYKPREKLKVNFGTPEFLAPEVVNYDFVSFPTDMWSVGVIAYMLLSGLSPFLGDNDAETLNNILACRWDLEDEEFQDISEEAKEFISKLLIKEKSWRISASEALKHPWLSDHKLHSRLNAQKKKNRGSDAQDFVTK
Sequence of human kinome (Homo sapiens, UniProt Q9P1W9) (Q9P1W9 whole entry): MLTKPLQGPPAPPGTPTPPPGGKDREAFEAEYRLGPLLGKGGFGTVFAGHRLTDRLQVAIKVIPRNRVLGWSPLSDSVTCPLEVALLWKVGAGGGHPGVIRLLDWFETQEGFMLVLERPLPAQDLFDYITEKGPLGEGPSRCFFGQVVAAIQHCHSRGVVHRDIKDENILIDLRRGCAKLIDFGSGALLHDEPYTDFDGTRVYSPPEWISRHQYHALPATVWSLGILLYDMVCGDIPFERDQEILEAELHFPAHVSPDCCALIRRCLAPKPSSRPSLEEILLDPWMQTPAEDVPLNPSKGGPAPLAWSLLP
Sequence of human kinome (Homo sapiens, UniProt Q13470) (Q13470 whole entry): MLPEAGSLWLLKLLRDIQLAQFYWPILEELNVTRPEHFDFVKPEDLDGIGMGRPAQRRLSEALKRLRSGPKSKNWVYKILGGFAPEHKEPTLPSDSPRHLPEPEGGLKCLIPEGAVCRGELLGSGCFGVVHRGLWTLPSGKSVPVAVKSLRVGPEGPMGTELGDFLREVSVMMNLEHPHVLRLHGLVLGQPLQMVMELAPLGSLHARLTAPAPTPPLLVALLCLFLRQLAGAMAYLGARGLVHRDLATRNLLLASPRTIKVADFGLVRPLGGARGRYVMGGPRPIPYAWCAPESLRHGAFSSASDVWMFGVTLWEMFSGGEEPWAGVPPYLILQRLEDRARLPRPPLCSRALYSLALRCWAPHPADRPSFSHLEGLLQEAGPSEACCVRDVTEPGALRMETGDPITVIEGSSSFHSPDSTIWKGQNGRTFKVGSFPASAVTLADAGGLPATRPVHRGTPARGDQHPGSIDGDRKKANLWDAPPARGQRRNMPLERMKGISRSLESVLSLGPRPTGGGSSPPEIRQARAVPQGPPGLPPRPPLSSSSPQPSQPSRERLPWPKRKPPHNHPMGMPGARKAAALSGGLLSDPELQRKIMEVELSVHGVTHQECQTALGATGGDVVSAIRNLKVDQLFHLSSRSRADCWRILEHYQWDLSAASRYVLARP

COc1cc(F)ccc1-c1cc(Nc2cc(CS(C)(=N)=O)ccn2)ncc1F (stereo not shown) [VIP152]
remaining binding at 1 µM [1]: 100%
remaining binding at 0.1 µM [2]: 95%
remaining binding at 0.1 µM [3]: 100%
remaining binding at 0.1 µM [4]: 82%
remaining binding at 0.1 µM [5]: 100%
remaining binding at 0.1 µM ([6]; PHKG2, 100 nM): 100%
remaining binding at 1 µM ([6]; kinase PHKG2 (Entrez PHKG2), compound concentration 1000 nM): 88%
remaining binding at 0.1 µM [7]: 100%
remaining binding at 0.1 µM ([8]; PIK3CG, 100 nM): 100%
remaining binding at 1 µM ([8]; kinase PIK3CG (Entrez PIK3CG), compound concentration 1000 nM): 97%
remaining binding at 0.1 µM [9]: 100%
remaining binding at 1 µM ([10]; kinase RSK2(Kin.Dom.1-N-terminal) (Entrez RPS6KA3)): 60%
remaining binding at 1 µM ([10]; kinase RSK2(Kin.Dom.2-C-terminal) (Entrez RPS6KA3)): 80%
remaining binding at 0.1 µM [11]: 73%
remaining binding at 0.1 µM [12]: 88%
remaining binding at 0.1 µM [13]: 100%
remaining binding at 0.1 µM [14]: 100%
remaining binding at 1 µM [15]: 82%
remaining binding at 0.1 µM [16]: 100%
remaining binding at 1 µM [17]: 30%
remaining binding at 0.1 µM [18]: 100%
remaining binding at 1 µM [19]: 85%
remaining binding at 0.1 µM [20]: 100%
remaining binding at 0.1 µM [21]: 100%
remaining binding at 0.1 µM ([22]; PIM3, 100 nM): 100%
remaining binding at 1 µM ([22]; kinase PIM3 (Entrez PIM3), compound concentration 1000 nM): 100%
remaining binding at 0.1 µM ([23]; MYLK4, 100 nM): 100%
remaining binding at 1 µM ([23]; kinase MYLK4 (Entrez MYLK4), compound concentration 1000 nM): 89%
remaining binding at 0.1 µM [24]: 100%
remaining binding at 0.1 µM ([25]; PIP5K2C (Entrez PIP4K2C), 100 nM): 52%
remaining binding at 1 µM ([25]; kinase PIP5K2C (Entrez PIP4K2C), compound concentration 1000 nM): 82%
remaining binding at 0.1 µM [26]: 94%
remaining binding at 1 µM [27]: 76%
remaining binding at 0.1 µM ([28]; PIP5K1A, 100 nM): 90%
remaining binding at 1 µM ([28]; kinase PIP5K1A (Entrez PIP5K1A), compound concentration 1000 nM): 18%
remaining binding at 0.1 µM ([29]; PIM2, 100 nM): 100%
remaining binding at 1 µM ([29]; kinase PIM2 (Entrez PIM2), compound concentration 1000 nM): 100%

From PMC9898036, “VIP152 is a selective CDK9 inhibitor with pre-clinical in vitro and in vivo efficacy in chronic lymphocytic leukemia” (Leukemia, 2022)
